One data set relates to monoclonal antibody 8D6. In words: Fluorescent antibody competition assay, IC50 determined with MoAb 8D6. It counts as binding, mouse. The procedure: (§1) All hybridoma media were screened for monoclonal anti-CS-045 antibodies on day 17 after fusion. The fluorescent antibody capture method was used and approximately 60 monoclonal antibodies were positive for binding of the CS-045 bPE fluorogen. Among these positive monoclonal antibodies, approximately 6 had binding affinity for 3 tested thiazolidinedione ISEs--LY 282449, [drawing 2] CS-045, and ciglitazone. Fifty percent binding inhibitory concentrations (IC50) were determined and data from 4 monoclonal antibodies are shown in Table 1 below.
(§2) Serial dilutions of test compound, fermentation broth, or tissue containing test compound or putative anti-idiotype culture supernatant (20 μl/well) were incubated 20 minutes in 96-well Pandex plates with the appropriate antibody (20 μl/well; 1 μg/ml) plus either goat anti-mouse IgG Latex beads or goat anti-rabbit IgG linked to polystyrene beads (IDEXX) (20 μl/well; 1:2 dilution). Fluorescent reference particles (IDEXX) were included in all assays to minimize well-to-well variation in filtration. […] Incubations were terminated after 20 minutes by vacuum filtration and the polystyrene particles retained on the Pandex filters were then washed twice with TBS-A buffer (described below) and solid phase fluorescence determined as described above.
(§3) Assay buffers typically contained bovine serum albumin (Sigma) at 0.2% (for monoclonal antibody assays) or 0.5% BLOTTO (non-fat dry milk for rabbit antibody assays). Percent inhibition of binding in test incubations was calculated in relationship to binding in control incubations in which no test compound was added using the following formula: % inhibition=[1-(fluorescence at 575/620 nm in test incubations divided by fluorescence at 575/620 nm in control incubations)×100)]. Concentrations of test compound in fermentation broth or plasma was calculated by interpolation from a standard curve generated with known concentrations of the appropriate compound as described in Taber et al., Clinical Chemistry, 37(2):254 (1991).

The subject of another data set is monoclonal antibody 10E1. In words: Fluorescent antibody competition assay, IC50 determined with MoAb 10E1. It counts as binding, mouse. The procedure:
as §1, §2, §3

Data set [1] relates to monoclonal antibody 13E3. In words: Fluorescent antibody competition assay, IC50 determined with MoAb 13E3. Type of data set: binding, mouse. The procedure: as §1, §2, §3
In a further data set the test system is monoclonal antibody 8F1. Put plainly: Fluorescent antibody competition assay, IC50 determined with MoAb 8F1. It counts as binding, mouse. Here is the method: as §1, §2, §3
The next data set deals with 13E3 F(ab')2 fragments. In words: ELISA competitive inhibition between CS-045 and anti-idiotypic antibodies on 13E3 F(ab')2 fragments. As to conditions: 0-200 μM CS-045; FIG. 3. Type of data set: binding, mouse. The procedure:
To test whether or not CS-045 could, in turn, displace these anti-idiotypicantibodies, 0.3 μg/well of 13E3 F(ab')2 fragments were coated onto microtiter plates and blocked with 1% BLOTTO (non-fat dry milk). Between 0-200 μM of CS-045 was added to duplicate wells. After approximately two hours at room temperature, wells were washed with BLOTTO and 500 ng of anti-idiotypic antibody 2E5 or 7E7 was added for approximately 1 hour. Goat anti-mouse (Fc -specific) conjugated with horseradish peroxidase was added and, after 30 minutes, washed 3 times with BLOTTO. A peroxidase substrate, tetramethylbenzidine (Kirkegaard and Perry Laboratories, Gaithersberg, Md.) was added and color was developed for approximately 30 minutes at room temperature.

Data set [2] concerns monoclonal antibody 13E3. In words: High-volume screen, fluorescent antibody competition assay (inhibition of binding of CS-045 bPE). More on the design: species or system mouse. The settings on record: for % inhibition in screen: approximately 2 μg/ml final concentration, CS-045 bPE binding to 13E3; for IC50: non-thiazolidinedione hits from high-volume screen. Here is the method: (§4) Serial dilutions of test compound, fermentation broth, or tissue containing test compound or putative anti-idiotype culture supernatant (20 μl/well) were incubated 20 minutes in 96-well Pandex plates with the appropriate antibody (20 μl/well; 1 μg/ml) plus either goat anti-mouse IgG Latex beads or goat anti-rabbit IgG linked to polystyrene beads (IDEXX) (20 μl/well; 1:2 dilution). Fluorescent reference particles (IDEXX) were included in all assays to minimize well-to-well variation in filtration. Fluorescent CS-045 bPE or LY 301318 bPE (20 μl/well; 1:2,000 dilution) was then added to the wells. Incubations were terminated after 20 minutes by vacuum filtration and the polystyrene particles retained on the Pandex filters were then washed twice with TBS-A buffer (described below) and solid phase fluorescence determined as described above.
as §3
The fluorescent antibody competition assay for high-volume screening was adapted as described below. Goat anti-mouse particles (1:2 dilution), fluorescent reference particles (dilution was optimized for each lot), and monoclonal antibody 13E3 (1 μg/ml) were premixed in TBS-A reaction buffer (0.02M Tris, 0.15M NaCl, 0.2% bovine serum albumin, 0.01% thimerosal, pH 7.5) and 40 μls was added to each well of the Pandex plate. Synthetic organic compounds (dissolved at 5 mg/ml DMSO and then diluted in TBS-A reaction buffer to 2 μg/ml) or 1:40 dilutions of fermentation broths were added to appropriate wells (20 μl/well) and incubated for approximately 20 minutes at room temperature. To each well was next added 20 μl of CS-045 bPE fluorogen; this final mixture was again incubated for approximately 20 minutes at room temperature in the dark. Wells were then aspirated by vacuum filtration and washed twice with TBS-A reaction buffer, and surface fluorescence was read at 545/575 nm and 590/620 nm using the Screen Machine (IDEXX Laboratories, Westbrook, Me.). Each Pandex plate contained both a negative control (only reaction buffer) and a positive control (LY 282449).
Final concentrations of synthetic organic compounds in high-volume screens was approximately 2 μg/ml and final concentrations of filtered fermentation broths were 1:40 (v/v). Wells that produced greater than 50% inhibition of binding of CS-045 bPE on both the initial screening and on retesting were considered positives. […] This problem was eliminated by inspection of data from each channel.

For data set [3], the system named is diabetic female (Avy/a) mice. Put plainly: Fed blood glucose in dexamethasone-treated diabetic female Avy/a mice. It counts as in vivo, mouse. The settings on record: subcutaneous, three days; FIG. 4. The procedure:
In order to determine if any of these novel, non-thiazolidinedione structures had anti-diabetic activity, LY 116196 was administered subcutaneously for three days to female Avy/a mice, which had been made diabetic by implantation of dexamethasone pellets. These dexamethasone-treated mice are characterized by both hyperglycemia and hyperinsulinemia and are models of type II diabetes. Sulfonylureas and other insulin secretagogues have little, if any, effect on blood glucose concentrations in this insulin-resistant animal model. […] Thus, this high-volume screen has detected a novel, anti-diabetic compound, LY 116196.

Data set [4] is described as follows: Plasma levels of LY 116196 by fluorescent antibody competition assay. It counts as in vivo, mouse. As to conditions: for concentration at 1 h: 1 hr after third injection; for concentration at 3 h: 3 hr after third injection; for concentration at 6 h: 6 hr after third injection. Here is the method:
as §4, §3
In the same experiment described in FIG. 4, plasma was prepared from tail blood drawn at 1, 3, 6, and 24 hours after the third subcutaneous injection of LY 116196. Plasma concentrations of LY 116196 (shown in Table 5) were determined directly by the fluorescent antibody competition assay using standards of LY 116196 diluted in TBS-A buffer containing 10% (v/v) normal mouse plasma. This method also has been used to measure blood concentrations of several compounds recognized by monoclonal antibody 13E3 and/or other antibodies produced by the methods described above. Thus, these reagents appear to have general utility for determining […] and tissue concentrations of immunologically positive compounds.

The IC50 is the midpoint of a concentration-inhibition curve. With `Cc1c(C)c2c(c(C)c1O)CCC(C)(COc1ccc(CC3SC(=O)NC3=O)cc1)O2` (stereo not shown) [CS-045], the half-inhibitory concentration (IC50) with monoclonal antibody 8D6 was 77 nM; in the data set with monoclonal antibody 10E1, 30 nM; in the data set with monoclonal antibody 13E3 [1], 200 nM; with monoclonal antibody 8F1 it was 1150 nM. Besides, the “Displacement of anti-idiotypic antibodies 2E5 and 7E7” value in the data set on 13E3 F(ab')2 fragments is “can displace two anti-idiotypic antibodies”.

Take `CC1(COc2ccc(CC3SC(=O)NC3=O)cc2)CCCCC1` (stereo not shown) [Ciglitazone, ciglitazone]: the IC50 stood at 125 nM with monoclonal antibody 8D6, 989 nM in the data set with monoclonal antibody 10E1, 1160 nM in the data set on monoclonal antibody 13E3 [1] and 12300 nM in the data set on monoclonal antibody 8F1.

On to `CCCCCC(=O)c1ccc(OC(C)(C)C(=O)O)cc1` [LY 044047], for which, in the data set on monoclonal antibody 13E3 [2], the “% inhibition in screen” value is recorded as 61% and the IC50 was 4000 nM.

With `FC(F)(F)c1nc2cc(Cl)c(Cl)cc2[nH]1` [LY 047310], in the data set with monoclonal antibody 13E3 [2], the “% inhibition in screen” value stood at 60% and the concentration for half-maximal inhibition (IC50) turned out to be 5000 nM.

With `CC(C)(Oc1ccc(/C=C/C(=O)c2ccccc2)cc1)C(=O)O` [LY 099238], in the data set with monoclonal antibody 13E3 [2], the “% inhibition in screen” value was 87% and the IC50 worked out at 2000 nM.

In the case of `CC(C)(Oc1ccc(C(=O)c2ccc(OC(C)(C)C(=O)O)cc2)cc1)C(=O)O` [LY 116196], in the data set on monoclonal antibody 13E3 [2] (545/575 nm, 4.0 μM), the “Relative fluorescence, sample channel” value turned out to be 360. For the same compound, the “Relative fluorescence, reference channel” value in the data set on monoclonal antibody 13E3 [2] (590/620 nm, 4.0 μM) is given as 6,500. In the data set with monoclonal antibody 13E3 [2], the “% inhibition in screen” value is reported as 105% and the 50% inhibitory concentration (IC50) was 60 nM. The Fed blood glucose entry in data set [3] is “effectively lowered fed blood glucose”. The “Plasma concentration of LY 116196” value in data set [4] (30 mg s.c., 24 hr after third injection) is 0 nM. Moreover, in data set [4] (100 mg s.c., 24 hr after third injection), the “Plasma concentration of LY 116196” value amounted to 0 nM. In addition, in data set [4] (mouse, plasma, sc, 30 mg s.c.), the concentration at 1 h came to 25 ± 11 µM, the concentration at 3 h was determined as 0.32 ± 0.2 µM and the concentration at 6 h came to 0.104 ± 0.052 µM. Also, in data set [4] (mouse, plasma, sc, 100 mg s.c.), the concentration at 1 h worked out at 83.3 ± 8 µM, the concentration at 3 h stood at 6 ± 1.6 µM and the concentration at 6 h is 0.268 ± 0.088 µM. In data set [4] (mouse, plasma, sc, 300 mg s.c.), this compound yielded a concentration at 1 h of 528 ± 72 µM, a concentration at 3 h of 24 ± 5.5 µM and a concentration at 6 h of 6.4 ± 3 µM. The concentration at 24 h in data set [4] (mouse, plasma, sc, 300 mg s.c., 24 hr after third injection) was 0.452 ± 0.022 µM.

On to `CN(C)C=Nc1nc2c(s1)CCc1sc(C=NN(C)C)nc1-2` [LY 181036], for which, in the data set on monoclonal antibody 13E3 [2], the “% inhibition in screen” value came out at 90% and the 50% inhibitory concentration (IC50) is 2000 nM.

In the case of `CCOC(=O)C(C)OP(=O)(Nc1ccccc1)OC(C)C(=O)OCC` (stereo not shown) [LY 222072], in the data set with monoclonal antibody 13E3 [2], the “% inhibition in screen” value came to 101% and the 50% inhibitory concentration (IC50) turned out to be 8000 nM.

On to `O=C(O)COc1ccccc1/C=N/N=C/c1ccccc1OCC(=O)O` [LY 281809], for which, in the data set with monoclonal antibody 13E3 [2], the “% inhibition in screen” value was 89% and the half-maximal inhibitory concentration (IC50) was 2000 nM.

On to `O=C1NC(=O)C(Cc2ccc3oc(Cc4ccc5ccccc5c4)nc3c2)S1` (stereo not shown) [LY 282449], for which the IC50 turned out to be 4760 nM with monoclonal antibody 8D6, 1410 nM in the data set with monoclonal antibody 10E1, 520 nM in the data set on monoclonal antibody 13E3 [1] and 4980 nM with monoclonal antibody 8F1.

Turning to `CN1C(=CC(=C(C=Cc2ccc3ccccc3[n+]2C)Oc2ccccc2O)c2ccccc2)C=Cc2ccccc21` [LY 283909], in the data set with monoclonal antibody 13E3 [2], the “% inhibition in screen” value is 70%.

Consider `O=P(O)(O)c1ccc(N=Nc2cc(C(F)(F)F)cc3nc(C(F)(F)C(F)F)[nH]c23)cc1` [LY 296345], for which, in the data set with monoclonal antibody 13E3 [2], the “% inhibition in screen” value came to 94% and the IC50 is 250 nM.

In the case of `O=c1[nH]c(=O)n(Cc2ccc(OCCc3coc(-c4ccccc4)n3)cc2)o1` [LY 301563], in the data set with monoclonal antibody 13E3 [2], the “% inhibition in screen” value came out at 88% and the IC50 came out at 250 nM.

For `O=C(CC(=O)Nc1nc(-c2ccc(Cl)cc2)cs1)NCCO` [LY 305329], in the data set on monoclonal antibody 13E3 [2], the “% inhibition in screen” value was 53% and the IC50 stood at 3600 nM.

`O=C(O)CC(=O)Nc1nc(-c2ccc(Cl)cc2)cs1` [LY 305334]: in the data set on monoclonal antibody 13E3 [2], the “% inhibition in screen” value was found to be 89% and the IC50 stood at 250 nM.

With `O=C(Nc1ccc(Br)c(Cl)c1)C(F)(C(F)(F)F)C(F)(F)F` [LY 800663], in the data set on monoclonal antibody 13E3 [2], the “% inhibition in screen” value is on record as 65% and the half-maximal inhibitory concentration (IC50) is 8000 nM.

Turning to `N#Cc1cc(F)cc(F)c1NC(=O)c1ccc(Cl)c(Cl)c1` [LY 820960], in the data set with monoclonal antibody 13E3 [2], the “% inhibition in screen” value stood at 55% and the IC50 is 4000 nM.
